From BindingDB's records for doi:10.1016/j.bmc.2008.07.022 (Universidade Federal De Lavras-Ufla, 2008)

What follows are molecules tested against cGMP-specific 3',5'-cyclic phosphodiesterase (Homo sapiens, UniProt O76074) (assay: Inhibition of PDE5).

| Structure (SMILES) | IC50 [nM] |
| --- | --- |
| CCOc1ccc([C@H]2c3[nH]c4ccccc4c3Cc3c(O)n(Cc4cccnc4)c(=O)n32)cc1 | 20 |
| CCOc1ccc([C@H]2c3[nH]c4ccccc4c3Cc3c(O)n(CCN(C)C)c(=O)n32)cc1 | 30 |
| CCOc1ccc([C@H]2c3[nH]c4ccccc4c3Cc3c(O)[nH]c(=O)n32)cc1 | 20 |
| CCOc1ccc([C@H]2c3[nH]c4ccccc4c3Cc3c(O)n(CCn4cccc4)c(=O)n32)cc1 | 100 |
| CCCCn1c(O)c2n(c1=O)[C@H](c1ccoc1)c1[nH]c3ccccc3c1C2 [(3aR,10R)-2-Butyl-10-furan-3-yl-3a,4,9,10-tetrahydro-2,9,10a-triaza-cyclopenta[b]fluorene-1,3-dione] | 100 |
| CCCCn1c(O)c2n(c1=O)[C@H](c1ccsc1)c1[nH]c3ccccc3c1C2 [Cis-2-Butyl-10-thiophen-3-yl-3a,4,9,10-tetrahydro-2,9,10a-triaza-cyclopenta[b]fluorene-1,3-dione] | 30 |
